Biological target: T1, E-selectin (Homo sapiens, UniProt P16581)
T1 sequence (P16581 whole entry): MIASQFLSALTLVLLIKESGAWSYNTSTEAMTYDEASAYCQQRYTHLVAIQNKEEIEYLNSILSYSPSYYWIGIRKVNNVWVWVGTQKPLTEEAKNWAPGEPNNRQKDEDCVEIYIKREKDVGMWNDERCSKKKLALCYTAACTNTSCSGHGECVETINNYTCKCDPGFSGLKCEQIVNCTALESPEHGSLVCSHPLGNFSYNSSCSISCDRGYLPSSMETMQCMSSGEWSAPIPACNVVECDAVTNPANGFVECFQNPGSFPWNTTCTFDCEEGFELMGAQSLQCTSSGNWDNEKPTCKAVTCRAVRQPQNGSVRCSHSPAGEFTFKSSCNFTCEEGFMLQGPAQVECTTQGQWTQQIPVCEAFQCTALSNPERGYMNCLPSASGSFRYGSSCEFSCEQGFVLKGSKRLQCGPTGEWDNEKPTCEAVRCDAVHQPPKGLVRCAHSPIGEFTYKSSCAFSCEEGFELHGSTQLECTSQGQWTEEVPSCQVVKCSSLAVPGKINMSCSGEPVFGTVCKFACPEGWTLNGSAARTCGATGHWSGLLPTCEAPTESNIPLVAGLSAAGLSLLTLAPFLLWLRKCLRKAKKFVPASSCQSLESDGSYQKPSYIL
Assay: Tested for inhibition of cell adhesion of HL-60 containing SLeX to purified recombinant human E-selectin

- IC50: 5 mM
SMILES: CCO[C@@H]1O[C@@H](CO)[C@H](O)[C@H](O[C@@H]2O[C@@H](CO)[C@@H](O[C@@H]3O[C@@H](CO)[C@H](O)[C@H](O[C@]4(C(=O)ON)C[C@@H](O)[C@@H](NC(C)=O)C([C@H](O)[C@H](O)CO)O4)[C@@H]3O)[C@H](O[C@@H]3OC[C@@H](O)[C@H](O)[C@@H]3O)[C@@H]2NC(C)=O)[C@@H]1O (stereo partly specified)

From ChEMBL document CHEMBL1127366, “Structure--activity relationships of sialyl Lewis x-containing oligosaccharides. 1. Effect of modifications of the fucose moiety” (J Med Chem, 1994)
